Laboratory results published in US7931909B2, “Ocular therapy using alpha-2 adrenergic receptor compounds having enhanced anterior clearance rates” (Allergan, Inc., priority 2005, dated 2011).
Read-outs that look alike come from different tables or passages of the source. Marks after values point to notes of the source that are not given here.

Legend:
[1] = in vivo; conditions: albino, rabbit, vitreous humor, 928 ng
[2] = Pharmacokinetics of brimonidine drug delivery systems administered subconjunctivally; type: in vivo, New Zealand White rabbits; conditions: all samples, subconjunctival drug delivery systems, rabbit
Text: Thirty groups of rabbits (2 rabbits per group) were used. The groups were divided into 6 sections of 5 groups. […] In each section, one group underwent ophthalmic observation at 5 days after dosing (DAD) and were euthanized at 8 DAD, one group underwent ophthalmic observation at 5 and 29 DAD and were euthanized at 31 DAD, one group underwent ophthalmic observation at 5, 29, and 54 DAD and were euthanized at 60 DAD, and two groups underwent ophthalmic observation at 5, 29, 54, and 86 DAD and were euthanized at 93 DAD.
Eyes were prepared for surgery by topical application of two drops of 1% tropicamide and two drops of phenylephrine hydrochloride 2.5%. Betadine was applied and washed from the eyes, and 1-2 drops of 0.5% proparacaine hydrochloride were delivered to each eye. […] Rods and wafers were administered using forceps. Conjunctivae were sutured closed and received a ocular lubricant. Subconjunctival injections were performed by elevating the bulbar conjunctiva in the dorsotemporal quadrant using forceps. An injection was made into the subconjunctival space.
In the above, the samples were quantified using LC-MS/MS methods with quantitation limits of 10 ng/mL for aqueous and vitreous humor samples, 0.05 ng/mL for plasma samples, 0.5 ng for iris-ciliary body samples, lens samples, and retina samples.

[3] = molecular target: alpha 2 adrenergic receptor; conditions: read-out: EC50 to activate the alpha 2 adrenergic receptor; isolated assay systems; cited from earlier work
[4] = in vivo; conditions: rabbit, other: intravitreal implant, 200 micrograms
[5] = intravitreal PLA implant, 200 micrograms brimonidine, rabbit eyes
[6] = system: organic cation transporter present in the conjunctiva; conditions: cited from earlier work
[7] = cited from earlier work

Brc1c(NC2=NCCN2)ccc2nccnc12 [brimonidine, 5-bromo-6-(2-imidazolidinylideneamino)quinoxaline]
clearance [1]: 0.00812 mL/min
half-life [1]: 1.45 h
concentration at 0.5 h ([1]; other: intravitreal injection): 608 ± 116 ng/mL
concentration at 10 h ([1]; other: intravitreal injection): 9.68 ± 6.48 ng/mL
Plasma brimonidine concentrations [2]: below the lower limit of quantitation
EC50 [3]: ~2 nM
concentration at 31 day ([4]; iris-ciliary body): 25.9 ± 9.11 ng/g
concentration at 58 day ([4]; iris-ciliary body): 69.4 ± 55.3 ng/g
concentration at 136 day ([4]; iris-ciliary body): 107 ± 41.5 ng/g
concentration at 8 day ([4]; lens): 45.1 ± 13.4 ng/g
concentration at 31 day ([4]; lens): 17 ± 3.92 ng/g
concentration at 91 day ([4]; lens): 50.1 ± 14.8 ng/g
concentration at 8 day ([4]; retina): 3630 ± 2110 ng/g
concentration at 31 day ([4]; retina): 35.3 ± 15.5 ng/g
concentration at 136 day ([4]; retina): 22.6 ± 5.9 ng/g
concentration at 8 day ([4]; vitreous humor): 47.2 ± 13.1 ng/mL
concentration at 91 day ([4]; vitreous humor): 59.3 ± 43.2 ng/mL
Brimonidine Concentration Iris-ciliary body ([5]; Day 8, mean (N = 2)): 942 ng/g
Brimonidine Concentration Iris-ciliary body, estimated mean value in parentheses ([5]; Day 8, two samples above the limit of quantitation): 3010 ng/g
Brimonidine Concentration Vitreous humor ([5]; Day 31, mean ± SEM): 9.35 ± 6.25^b ng/mL
Brimonidine Concentration Lens ([5]; Day 58, mean ± SEM): 17.9 ± 12.5^b ng/g
Brimonidine Concentration Retina ([5]; Day 58, mean ± SEM): 122 ± 57.3^a ng/g
Brimonidine Concentration Vitreous humor ([5]; Day 58, mean ± SEM): 5.6 ± 3.24^b ng/mL
Brimonidine Concentration Iris-ciliary body ([5]; Day 91, mean ± SEM): 42.9 ± 18.7^c ng/g
Brimonidine Concentration Retina ([5]; Day 91, mean ± SEM): 488 ± 471^b ng/g
Brimonidine Concentration Lens ([5]; Day 136, mean ± SEM): 16.2 ± 12.3^a ng/g
Brimonidine Concentration Lens ([5]; Day 184, mean ± SEM): 1.18 ± 0.71^b ng/g
Brimonidine Concentration Retina ([5]; Day 184, mean ± SEM): 59.8 ± 35.0^b ng/g
substrate for the organic cation transporter [6]: substrate
vitreal clearance rate (as restated in Example 3): 0.487 mL/day
route of elimination from the vitreous (conclusion from intravitreal clearance, rabbit): trans-retinal route

brimonidine tartrate
solubility in water ([7]; in water): 34 mg/mL
solubility in a pH 7.0 phosphate buffer ([7]; pH 7.0 phosphate buffer): 2.4 mg/mL
